# Results reported in patent US20140163067A1, “Methods of Treatment of Limited Cognitive Impairment” (ENVIVO PHARMACEUTICALS, INC., priority 2011, published 2014).
# System: subjects suffering from LCI
# Assay: Sensory electrophysiological responses (P50 gating, MMN, P300, N100) in LCI subjects
# Assay type: in vivo, human
# Conditions: compared with placebo, effects expected at a daily dose as low as 0.3 mg, dosed daily for 20 days
# Experimental: These effects are expected at a daily dose as low as 0.3 mg of (R)-7-chloro-N-(quinuclidin-3-yl)benzo[b]thiophene-2-carboxamide hydrochloride.
# Impairment of the ability of central nervous system to inhibit irrelevant sensory information has long been used as a model for understanding the deficits of attention seen in subjects. Two approaches to the measurement of this ability have commonly been employed (see (Heinrichs, 2004; Potter et al., 2006; Turetsky et al., 2007; Umbricht and Krljes, 2005) for reviews and meta-analyses): (1) the sensory gating paradigm in which the presentation of one stimulus normally suppresses the response elicited by a stimulus which rapidly follows it; and (2) the oddball or orienting paradigm in which a rare or unexpected event elicits a diminished response in subjects because attentional resources are inappropriately focused on less salient aspects of the environment.
# Two responses are commonly used assess brain activity: (1) the auditory P50 response elicited by the second member of a pair of clicks; and (2) the mismatch negativity (MMN) or N2 response evoked by a rarely occurring pure tone of no instructed relevance to the subject. Abnormalities in both P50 gating and the MMN have been reported in schizophrenic subjects. […]
smiles,measurement,value
Cl.O=C(N[C@H]1CN2CCC1CC2)c1cc2cccc(Cl)c2s1 [(R)-7-chloro-N-(quinuclidin-3-yl)benzo[b]thiophene-2-carboxamide hydrochloride],sensory electrophysiological responses which correlate with improved cognitive and functional performance,can improve sensory electrophysiological responses
